In PubChem BioAssay (NCI):
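Growth conditions: 96-well plates. Treatment: test compound, 48 hours, 5 concentrations. Analysis: linear interpolation between bracketing concentrations; unreached endpoints set to highest concentration. GI50 marks 50% less growth. TGI is the concentration that stops growth completely.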

Columns and labels:
Assay in all cases: NCI tumour cell line growth inhibition, 48 h
[1] = test system: CAKI-1 renal
[2] = test system: EKVX NSCLC
[3] = test system: HOP-62 NSCLC
[4] = test system: HS 578T breast
[5] = test system: NCI-H460 lung
[6] = test system: OVCAR-3 ovarian
[7] = test system: RPMI-8226 leukemia
[8] = test system: SNB-75 CNS
[9] = test system: SW-620 colon
[10] = test system: TK-10 renal

SMILES	GI50 [1]	TGI [1]	GI50 [2]	TGI [2]	GI50 [3]	TGI [3]	GI50 [4]	TGI [4]	GI50 [5]	TGI [5]	GI50 [6]	TGI [6]	GI50 [7]	TGI [7]	GI50 [8]	TGI [8]	GI50 [9]	TGI [9]	GI50 [10]	TGI [10]
C=CCOc1c(Br)cc(Br)cc1Br	13 µM	83.6 µM	10.3 µM	> 100 µM	23.5 µM	> 100 µM	17.8 µM	> 100 µM	8.21 µM	> 100 µM	3.12 µM	17.2 µM	16.2 µM	> 100 µM	20.2 µM	> 100 µM	22.6 µM	89.4 µM	> 100 µM	> 100 µM
Oc1ccc(Cc2ccccc2)c2cccnc12	2.22 µM	8.96 µM	2.32 µM	> 100 µM	2.03 µM	80.6 µM	> 100 µM	> 100 µM	1.61 µM	17.3 µM	6.7 µM	37.6 µM	1.46 µM	> 100 µM	14.7 µM	> 100 µM	3.39 µM	54.8 µM	2.81 µM	> 100 µM
CC(C)(C)c1nc2c(o1)C(=Nc1ccc(F)cc1)c1ccccc1C2=O	–	> 100 µM	–	> 83.5 µM	–	32.4 µM	–	> 45.7 µM	–	21.5 µM	–	7.62 µM	–	> 100 µM	–	20 µM	–	30 µM	–	68.3 µM
COc1ccc2c(-c3cc4ccccc4o3)cc(=O)oc2c1	–	> 87.4 µM	–	> 100 µM	–	46.7 µM	–	43.6 µM	–	> 100 µM	–	30.4 µM	–	> 100 µM	–	47.6 µM	–	> 100 µM	–	50.8 µM
COc1ccccc1C(=O)c1ccc2ccccc2c1	–	49.2 µM	–	77.8 µM	–	> 100 µM	–	39.1 µM	–	84.1 µM	–	39.6 µM	–	97.5 µM	–	> 100 µM	–	75.2 µM	–	63.6 µM
C[C@H]1CCC/C=C/[C@@H]2C[C@H](N)C[C@H]2[C@H](O)/C=C/C(=O)O1	> 100 µM	> 100 µM	> 100 µM	> 100 µM	> 100 µM	> 100 µM	> 100 µM	> 100 µM	> 100 µM	> 100 µM	> 100 µM	> 100 µM	> 100 µM	> 100 µM	39.9 µM	> 100 µM	> 100 µM	> 100 µM	> 100 µM	> 100 µM
NCCN1CCN(c2nccc(-c3ccc4ccccc4c3)n2)CC1	1.55 µM	2.95 µM	1.83 µM	4.08 µM	1.76 µM	3.28 µM	1.73 µM	4.37 µM	1.91 µM	3.69 µM	2.36 µM	5.45 µM	2.08 µM	5.72 µM	1.41 µM	2.9 µM	1.83 µM	3.61 µM	1.78 µM	3.27 µM
Cc1noc(C)c1-c1ccc2[nH]c(=O)n3c2c1OC[C@@H]3c1ccccn1	0.151 µM	> 100 µM	2.39 µM	> 100 µM	0.482 µM	> 100 µM	0.254 µM	> 31.2 µM	> 100 µM	> 100 µM	3.84 µM	> 100 µM	0.267 µM	> 20.2 µM	0.0166 µM	0.171 µM	> 100 µM	> 100 µM	0.312 µM	> 100 µM
CN(C)CCNC(=O)Nc1c(C#N)[n+]([O-])c2cc(Cl)c(Cl)cc2[n+]1[O-]	37.6 µM	> 100 µM	36.8 µM	> 100 µM	34.2 µM	> 100 µM	33.4 µM	> 100 µM	21.1 µM	> 100 µM	21.4 µM	57 µM	8.65 µM	> 100 µM	14.7 µM	> 100 µM	17.4 µM	69.7 µM	53.7 µM	> 100 µM
Clc1ccc(OCc2nnc3n2N=C(c2ccc(Cl)cc2Cl)CS3)c(Cl)c1	26.6 µM	83 µM	26.2 µM	74.1 µM	27.8 µM	78.6 µM	29.6 µM	> 100 µM	19.3 µM	56.3 µM	21.2 µM	73.1 µM	23.4 µM	63.7 µM	12.2 µM	48.7 µM	31.3 µM	> 100 µM	25.1 µM	> 100 µM
